Measurements: patent US12145947B2, “Pyrimidine based modulators and uses thereof” (Quanta Therapeutics, Inc., priority 2022, dated 2024)

Assays:
[1] = tested on: GP2D cells (KRAS G12D), phospho-ERK; experiment: pERK In Cell Western (ICW) assay, GP2D cells; assay type: cell-based; settings: Table 4, 3 hours
Procedure, shortened: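 GP2D (10,000 cells/well) and AGS (5,000 cells/well) cells were treated for 3 h at 37 °C with a 10-point, ½-log dilution series (top […]). They were then fixed and immunostained for phospho-ERK. pERK signal was normalised to DRAQ5 and expressed as % of DMSO, with IC50 from a 4-parameter fit.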

KRAS G12D/RAF1 = molecular target: T1, KRAS G12D/RAF1 (Homo sapiens, UniProt P01116, G12D); experiment: Protein-protein interaction (PPI) HTRF assay KRAS G12D/RAF1; assay type: binding; settings: Table 4
T1 construct: His6-MBP (N, cleaved yes); made in house; host or cells: E. coli
Procedure, shortened: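 HTRF pairing of His-tagged RAF1 (52-131) plus Tb-cryptate donor with GppNHp-exchanged biotin-RAS (KRAS 1-169 wt/G12D/G12V, NRAS wt) plus streptavidin-d2 acceptor; compound sits 30 min with RAS first, then 1 h RT with RAF1. IC50 derived from 665/615 ratio, untagged RAF1 defining full inhibition.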

T1 sequence (P01116 with tags, fused parts or gaps isoform P01116-2 G12D): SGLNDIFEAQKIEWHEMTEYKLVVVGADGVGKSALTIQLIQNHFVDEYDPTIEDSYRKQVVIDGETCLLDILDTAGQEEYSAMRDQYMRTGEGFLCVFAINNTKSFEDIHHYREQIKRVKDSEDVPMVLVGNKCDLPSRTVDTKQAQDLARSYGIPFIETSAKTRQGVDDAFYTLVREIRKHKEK

## N#Cc1c(N2C[C@H]3CC[C@@H](C2)N3)nc(OC[C@@H]2CCN2CC(F)(F)F)nc1N1CC2(CCc3sc(N)c(C#N)c32)C1 [Compound 92, 2-amino-1′-[5-cyano-6-[(1R,5S)-3,8-diazabicyclo[3.2.1]octan-3-yl]-2-[[(2S)-1-(2,2,2-trifluoroethyl)azetidin-2-yl]methoxy]pyrimidin-4-yl]spiro[5,6-dihydrocyclopenta[b]thiophene-4,3′-azetidine]-3-carbonitrile]
[1]
  IC50: 1000 to 10000 nM
KRAS G12D/RAF1
  IC50: 10000 to 100000 nM

## C=C1CN2CCCC2(COc2nc(N3CCCn4nc(C(=O)N(C)C)c(Cl)c4C3)c(C#N)c(N3CC4(CCc5sc(N)c(C#N)c54)C3)n2)C1 (centres unmarked) [Compound 93, 5-[6-(2-amino-3-cyano-spiro[5,6-dihydrocyclopenta[b]thiophene-4,3′-azetidine]-1′-yl)-5-cyano-2-[(6-methylene-2,3,5,7-tetrahydro-1H-pyrrolizin-8-yl)methoxy]pyrimidin-4-yl]-3-chloro-N,N-dimethyl-4,6,7,8-tetrahydropyrazolo[1,5-a][1,4]diazepine-2-carboxamide]
[1]
  IC50: 1 to 10 nM
KRAS G12D/RAF1
  IC50: 100 to 1000 nM

## C=C1CN2CCCC2(COc2nc(N3C[C@H]4CC[C@@H](C3)N4)c(C#N)c(N3CC4(CCc5sc(N)c(C#N)c54)C3)n2)C1 (stereo partly drawn) [Compound 94, 2-amino-1′-[5-cyano-2-[(6-methylene-2,3,5,7-tetrahydro-1H-pyrrolizin-8-yl)methoxy]-6-[(1R,5S)-3,8-diazabicyclo[3.2.1]octan-3-yl]pyrimidin-4-yl]spiro[5,6-dihydrocyclopenta[b]thiophene-4,3′-azetidine]-3-carbonitrile]
[1]
  IC50: 1 to 10 nM
KRAS G12D/RAF1
  IC50: < 100 nM

## CN(C)CC1(COc2nc(N3CCCn4nc(C(=O)N(C)C)c(Cl)c4C3)c(C#N)c(N3CC4(CCCc5sc(N)c(C#N)c54)C3)n2)CC1(F)F (centres unmarked) [Compound 96, 5-[6-(2-amino-3-cyano-spiro[6,7-dihydro-5H-benzothiophene-4,3′-azetidine]-1′-yl)-5-cyano-2-[[1-[(dimethylamino)methyl]-2,2-difluoro-cyclopropyl]methoxy]pyrimidin-4-yl]-3-chloro-N,N-dimethyl-4,6,7,8-tetrahydropyrazolo[1,5-a][1,4]diazepine-2-carboxamide]
[1]
  IC50: 10 to 100 nM
KRAS G12D/RAF1
  IC50: 1000 to 10000 nM

## Cn1nccc1COc1nc(N2C[C@H]3CC[C@@H](C2)N3)c(C#N)c(N2CC3(CCc4sc(N)c(C#N)c43)C2)n1 [Compound 97, 2-amino-1′-[5-cyano-2-[(2-methylpyrazol-3-yl)methoxy]-6-[(1R,5S)-3,8-diazabicyclo[3.2.1]octan-3-yl]pyrimidin-4-yl]spiro[5,6-dihydrocyclopenta[b]thiophene-4,3′-azetidine]-3-carbonitrile]
[1]
  IC50: 100 to 1000 nM
KRAS G12D/RAF1
  IC50: 10000 to 100000 nM

## N#Cc1c(N2C[C@H]3CC[C@@H](C2)N3)nc(OCC2(c3ccn[nH]3)CC2)nc1N1CC2(CCc3sc(N)c(C#N)c32)C1 [Compound 98, 2-amino-1′-[5-cyano-6-[(1R,5S)-3,8-diazabicyclo[3.2.1]octan-3-yl]-2-[[1-(1H-pyrazol-5-yl)cyclopropyl]methoxy]pyrimidin-4-yl]spiro[5,6-dihydrocyclopenta[b]thiophene-4,3′-azetidine]-3-carbonitrile]
[1]
  IC50: 1000 to 10000 nM
KRAS G12D/RAF1
  IC50: 1000 to 10000 nM

## N#Cc1c(N2C[C@H]3CC[C@@H](C2)N3)nc(OC[C@@]23CCCN2C[C@H](F)C3)nc1N1CC2(C1)c1c(sc(N)c1C#N)CC1CC12 (stereo partly drawn) [Compound 99, 2-amino-1′-[5-cyano-6-[(1R,5S)-3,8-diazabicyclo[3.2.1]octan-3-yl]-2-[[(2R,8S)-2-fluoro-1,2,3,5,6,7-hexahydropyrrolizin-8-yl]methoxy]pyrimidin-4-yl]spiro[4a,5,5a,6-tetrahydrocyclopropa[f]benzothiophene-4,3′-azetidine]-3-carbonitrile]
[1]
  IC50: 1 to 10 nM
KRAS G12D/RAF1
  IC50: 100 to 1000 nM

## N#Cc1c(N2C[C@H]3CC[C@@H](C2)N3)nc(OCC2(CN3CCOCC3)CC2)nc1N1CC2(C1)SCc1sc(N)c(C#N)c12 [Compound 100, 2-amino-1′-[5-cyano-6-[(1R,5S)-3,8-diazabicyclo[3.2.1]octan-3-yl]-2-[[1-(morpholinomethyl)cyclopropyl]methoxy]pyrimidin-4-yl]spiro[6H-thieno[2,3-c]thiophene-4,3′-azetidine]-3-carbonitrile]
[1]
  IC50: 1 to 10 nM
KRAS G12D/RAF1
  IC50: < 100 nM

## N#Cc1c(N2C[C@H]3CC[C@@H](C2)N3)nc(OCC2(CN3CCOCC3)CC2)nc1N1CC2(C1)c1c(sc(N)c1C#N)CC2F (stereo partly drawn) [Compound 101, 2-amino-1′-[5-cyano-6-[(1R,5S)-3,8-diazabicyclo[3.2.1]octan-3-yl]-2-[[1-(morpholinomethyl)cyclopropyl]methoxy]pyrimidin-4-yl]-5-fluoro-spiro[5,6-dihydrocyclopenta[b]thiophene-4,3′-azetidine]-3-carbonitrile]
[1]
  IC50: 1 to 10 nM
KRAS G12D/RAF1
  IC50: 100 to 1000 nM

## Cc1n[nH]nc1COc1nc(N2C[C@H]3CC[C@@H](C2)N3)c(C#N)c(N2CC3(CCc4sc(N)c(C#N)c43)C2)n1 [Compound 108]
[1]
  IC50: 1000 to 10000 nM
KRAS G12D/RAF1
  IC50: 10000 to 100000 nM
